± gives the standard deviation of the averaged measurements.
These test systems were tested with O=C(O)C1(C(=O)O)CCC1.[NH2-].[NH2-].[Pt+2] [CARBOPLATIN] (assay: surviving fraction relative to DMSO-only wells; higher = less growth inhibition). Conditions: 10 nM; exposure time: 5 days.
Outline: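 Inhibitors were tested at 0.5, 1, 5, 10, 50, 100, 500 and 1000 nM, applied continuously for five days beginning 24 hours after log-phase tumour cells were seeded at 250–500 per well in 384-well plates. CellTiter-Glo luminescence served as the viability measure, expressed as surviving fraction against the median of DMSO-only wells. Each line, screened three times, was kept only with replicate Pearson r >0.7 and median Z' >0.3.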

Test System	surviving fraction
VCAP PROSTATE	1.09 ± 0.11

Same assay, conditions: 50 nM; exposure time: 5 days

Test System	surviving fraction
CADOES1 SOFT TISSUE	0.96 ± 0.11
SAOS2 BONE	1.15 ± 0.051
MDAMB436 BREAST	1.09 ± 0.21
93VU HEADNECK	1.27 ± 0.091
KPD BONE	1.09 ± 0.02
SYO1 SYNOVIAL	0.998 ± 0.019
BT20 BREAST	1.2 ± 0.088
SUM44 BREAST	1.28 ± 0.27
CAL120 BREAST	1.02 ± 0.044
CHLA90 AUTONOMIC GANGLIA	1.14 ± 0.11
HCC1806 BREAST	1.17 ± 0.081
HCC78 LUNG	1 ± 0.22
MFM223 BREAST	1.16 ± 0.021
SG43 HEADNECK	0.826 ± 0.071
HOS BONE	1.15 ± 0.05
MDAMB468 BREAST	1.1 ± 0.1

Test System	surviving fraction
SG27 HEADNECK	1.18 ± 0.12
ZR751 BREAST	1.2 ± 0.099
HSSYII SYNOVIAL	0.965 ± 0.05
MG63 BONE	1.08 ± 0.034
HS57T BREAST	1.11 ± 0.084
SUM159 BREAST	1.09 ± 0.022
HCC1395 BREAST	1.15 ± 0.16
SUM149.B1*.S BREAST	1.17 ± 0.024
MDAMB453 BREAST	1.07 ± 0.018
SCC90 HEADNECK	1.2 ± 0.07
HMLE3 BREAST	1.06 ± 0.042
HCC70 BREAST	1.19 ± 0.064
LNCAP PROSTATE	1.09 ± 0.031
HCT15 LARGE INTESTINE	1.06 ± 0.072
MHM BONE	1.09 ± 0.014
VCAP PROSTATE	1.05 ± 0.13

Same assay, conditions: 100 nM; exposure time: 5 days

Test System	surviving fraction
CADOES1 SOFT TISSUE	0.962 ± 0.078
SAOS2 BONE	1.06 ± 0.11
MDAMB436 BREAST	0.906 ± 0.078
93VU HEADNECK	1.28 ± 0.09
KPD BONE	1.1 ± 0.05
SYO1 SYNOVIAL	1.01 ± 0.035
BT20 BREAST	1.29 ± 0.14
SUM44 BREAST	1.11 ± 0.1
CAL120 BREAST	0.993 ± 0.033
CHLA90 AUTONOMIC GANGLIA	1.11 ± 0.098
HCC1806 BREAST	1.14 ± 0.14
HCC78 LUNG	1.12 ± 0.2
MFM223 BREAST	1.12 ± 0.094
SG43 HEADNECK	0.996 ± 0.19
HOS BONE	1.11 ± 0.033
MDAMB468 BREAST	1.02 ± 0.019

Test System	surviving fraction
SG27 HEADNECK	1.02 ± 0.13
ZR751 BREAST	1.18 ± 0.25
HSSYII SYNOVIAL	0.97 ± 0.016
MG63 BONE	1.076 ± 0.004
HS57T BREAST	1.08 ± 0.033
SUM159 BREAST	1.09 ± 0.015
HCC1395 BREAST	1.18 ± 0.062
SUM149.B1*.S BREAST	1.2 ± 0.029
MDAMB453 BREAST	1.1 ± 0.069
SCC90 HEADNECK	1.15 ± 0.012
HMLE3 BREAST	1.05 ± 0.11
HCC70 BREAST	0.999 ± 0.049
LNCAP PROSTATE	1.04 ± 0.046
HCT15 LARGE INTESTINE	1.09 ± 0.045
MHM BONE	1.07 ± 0.028
VCAP PROSTATE	1.21 ± 0.086

Same assay, conditions: 500 nM; exposure time: 5 days

Test System	surviving fraction
CADOES1 SOFT TISSUE	1.1 ± 0.11
SAOS2 BONE	1.09 ± 0.097
MDAMB436 BREAST	1.02 ± 0.033
93VU HEADNECK	1.19 ± 0.027
KPD BONE	1.04 ± 0.084
SYO1 SYNOVIAL	0.99 ± 0.065
BT20 BREAST	1.33 ± 0.16
SUM44 BREAST	1.2 ± 0.25
CAL120 BREAST	0.986 ± 0.04
CHLA90 AUTONOMIC GANGLIA	1.09 ± 0.097
HCC1806 BREAST	1.04 ± 0.086
HCC78 LUNG	0.973 ± 0.037
MFM223 BREAST	1.11 ± 0.077
SG43 HEADNECK	0.994 ± 0.16
HOS BONE	1.07 ± 0.02
MDAMB468 BREAST	1.08 ± 0.063

Test System	surviving fraction
SG27 HEADNECK	1.14 ± 0.27
ZR751 BREAST	1.26 ± 0.15
HSSYII SYNOVIAL	0.959 ± 0.037
MG63 BONE	1.05 ± 0.055
HS57T BREAST	1.07 ± 0.092
SUM159 BREAST	1.11 ± 0.022
HCC1395 BREAST	1.17 ± 0.13
SUM149.B1*.S BREAST	1.19 ± 0.052
MDAMB453 BREAST	1.01 ± 0.02
SCC90 HEADNECK	1.14 ± 0.098
HMLE3 BREAST	1.02 ± 0.057
HCC70 BREAST	1.06 ± 0.082
LNCAP PROSTATE	1 ± 0.18
HCT15 LARGE INTESTINE	1.06 ± 0.036
MHM BONE	1.02 ± 0.04
VCAP PROSTATE	1.05 ± 0.07

Same assay, conditions: 1000 nM; exposure time: 5 days

Test System	surviving fraction
CADOES1 SOFT TISSUE	1.02 ± 0.11
SAOS2 BONE	0.943 ± 0.22
MDAMB436 BREAST	0.924 ± 0.088
93VU HEADNECK	1.21 ± 0.1
KPD BONE	1.03 ± 0.016
SYO1 SYNOVIAL	0.972 ± 0.028
BT20 BREAST	1.11 ± 0.069
SUM44 BREAST	1.07 ± 0.079
CAL120 BREAST	0.976 ± 0.034
CHLA90 AUTONOMIC GANGLIA	1.13 ± 0.14
HCC1806 BREAST	1.16 ± 0.14
HCC78 LUNG	0.954 ± 0.18
MFM223 BREAST	1.06 ± 0.11
SG43 HEADNECK	1.07 ± 0.14
HOS BONE	1.068 ± 0.0086
MDAMB468 BREAST	0.975 ± 0.072

Test System	surviving fraction
SG27 HEADNECK	1.03 ± 0.11
ZR751 BREAST	1.24 ± 0.22
HSSYII SYNOVIAL	0.958 ± 0.089
MG63 BONE	1.01 ± 0.032
HS57T BREAST	1.05 ± 0.054
SUM159 BREAST	1.092 ± 0.01
HCC1395 BREAST	1.04 ± 0.1
SUM149.B1*.S BREAST	1.13 ± 0.025
MDAMB453 BREAST	0.993 ± 0.011
SCC90 HEADNECK	1.16 ± 0.12
HMLE3 BREAST	1.08 ± 0.13
HCC70 BREAST	1.02 ± 0.054
LNCAP PROSTATE	0.977 ± 0.077
HCT15 LARGE INTESTINE	1.08 ± 0.04
MHM BONE	1.035 ± 0.0078

Reference: the supplement of paper PMC6045584
